Source: US8450333B2, “Molecules for regulating cell death” (The Regents of The University of California, priority 2003, dated 2013)

Tests used:
wild type yeast cells = test: Mitochondrial morphology in yeast (secondary screen, mitochondrial targeted GFP); assay type: cell-based, S. cerevisiae
Description: Secondary screens: Compounds identified in the primary growth assay-based screens outlined above are screened secondarily by examining their effects on mitochondrial morphology. We use the steady state structure of mitochondria as an indicator of the relative rates of mitochondrial fission and fusion in cells. […] Mitochondria are visualized using a mitochondrial targeted GFP that is efficiently targeted to both wild type and respiratory deficient mitochondria (Tieu et al., 2000 The Journal of Cell Biology 151, 353-365.).
All compounds identified in the primary growth assay-based screens outlined above were screened secondarily by examining their effects on mitochondrial morphology in yeast. From previous work, we know that the steady state structure of mitochondria is an indicator of the relative rates of mitochondrial fission and fusion in cells (FIG. 7). Specifically, net-like structures indicate a block in fission, and fragmented mitochondrial structures indicate a block in fusion. […] In this secondary assay, small molecules were judged to be a hit if they produced a mutant phenotype in greater than 5% of the cell population.
To determine what structural features are important for the effects of mfisi-1 on mitochondrial fission, we identified structurally related molecules using a chemoinformatics approach. We utilized web-based ChemNavigator to search available public and commercial compound databases for small molecules that uniquely represented key structural features of mfisi-1. We tested a total of 15 small molecules related to mfisi-1 for their effects on mitochondrial morphology in yeast, each at a concentration of 50 μM (Table 3).

recombinant Dnm1 = target: T1, recombinant Dnm1 (Saccharomyces cerevisiae, UniProt P54861); test: Dnm1 GTPase activity, radioactive TLC-based assay; assay type: biochemical, yeast
T1 construct: made in house; host or cells: insect cells (baculovirus expression system)
T1 sequence (P54861 1-757): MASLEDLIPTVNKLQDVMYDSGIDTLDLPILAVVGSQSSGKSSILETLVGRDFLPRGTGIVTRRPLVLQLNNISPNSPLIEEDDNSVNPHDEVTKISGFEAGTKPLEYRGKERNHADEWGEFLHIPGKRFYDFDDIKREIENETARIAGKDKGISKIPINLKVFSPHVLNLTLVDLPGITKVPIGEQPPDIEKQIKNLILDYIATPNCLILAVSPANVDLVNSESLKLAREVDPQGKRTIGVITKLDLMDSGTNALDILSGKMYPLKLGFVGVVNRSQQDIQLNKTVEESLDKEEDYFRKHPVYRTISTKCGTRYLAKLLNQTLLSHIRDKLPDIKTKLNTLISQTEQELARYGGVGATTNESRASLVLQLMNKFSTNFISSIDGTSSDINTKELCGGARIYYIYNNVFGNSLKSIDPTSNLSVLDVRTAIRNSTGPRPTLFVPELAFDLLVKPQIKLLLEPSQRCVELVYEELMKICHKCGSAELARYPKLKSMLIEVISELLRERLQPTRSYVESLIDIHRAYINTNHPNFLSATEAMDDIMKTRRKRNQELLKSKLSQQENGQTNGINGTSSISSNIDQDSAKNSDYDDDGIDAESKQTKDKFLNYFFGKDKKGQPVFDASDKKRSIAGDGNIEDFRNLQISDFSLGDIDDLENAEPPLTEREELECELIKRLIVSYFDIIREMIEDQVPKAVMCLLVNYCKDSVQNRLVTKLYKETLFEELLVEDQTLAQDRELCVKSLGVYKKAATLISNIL
Description: In order to discern a detailed mechanism for mitochondrial fission, we have begun to purify and characterize activities associated with known fission components, with the ultimate goal of reconstituting this event in vitro. Towards this goal, we have successfully expressed and purified active recombinant Dnm1 (the yeast mitochondrial fission DRP) from insect cells, using a baculovirus expression system. Using an established radioactive TLC-based assay for GTPase activity, we characterized the kinetic properties of recombinant Dnm1 under low salt conditions (FIG. 10A). […] The Km for GTP for Dnm1 is near 200 μM, greater than that observed for assembled dynamin (˜10 μM). The significance of this difference as it relates to the function of these DRPs will be interesting to determine.
Determining the mechanism of mfisi-1 inhibition is critical for assessing how DRPs function in mitochondrial fission. We will perform standard steady-state kinetic assays to determine the mechanism of inhibition by mfisi-1 using established GTPase assays in the presence of variable concentrations of substrate (GTP) and mfisi-1. […] Nucleotides are resolved using thin layer chromatography, and quantification of GTP and GDP product is performed using a Phosphorimager. All rates are calculated using time points where product formation is linear over time.

mammalian COS cells = test: Mitochondrial morphology in mammalian COS cells; assay type: cell-based
Description: Drp1, the mammalian mitochondrial fission DRP, has a high degree of similarity and identity to its yeast ortholog, Dnm1. This encouraged us to exploit the chemical genetic approach and examine the effects of mfisi-1 on mitochondrial morphology in mammalian cells. In mammalian cells, it has been established that when fission is retarded by expression of dominant-negative Drp1, mitochondria become progressively more interconnected, form net-like structures, and collapse into degenerate perinuclear structures in cells. Remarkably, the addition of mfisi-1 to mammalian COS cells in culture caused a rapid and reversible change in mitochondrial morphology equivalent to that observed upon expression of dominant negative Drp1 in double-binded experiments (FIG. 12, n=100: untreated; 0% collapsed nets, 14% loose nets, 70% reticular, 15% fragmented; mfisi-1 treated; n=100, 19% collapsed nets, 45% loose nets, 36% reticular, 0% fragmented). The EC50 of mfisi-1 effects on mitochondrial morphology in mammalian cells is similar to that observed for the effect of mfisi-1 on mitochondrial morphology in yeast (EC50=10 µM).

yeast cells = test: Time-lapse fluorescence microscopy of mitochondrial fission and fusion events in yeast; assay type: cell-based, S. cerevisiae; settings: time-lapse after drug addition
Description: To distinguish whether compounds specifically affect mitochondrial fission or fusion, we directly measure the rates of these events by examining the behavior of mitochondria using time-lapse fluorescence microscopy after drug addition. We routinely perform this type of experiment using a DeltaVision deconvolution microscope.
Formally, the small molecules we identified could produce their phenotypes by either inhibiting or activating fission or fusion. To distinguish the exact effects of mfisi-1 and other small molecules identified in our screens on mitochondrial dynamics, we have directly measured the rates of fission and fusion events after drug addition in yeast cells by examining the behavior of mitochondria using time-lapse fluorescence microscopy. […] In contrast, in DMSO treated control cells, both fission and fusion events were easily detected in the same time frame.

[1] = test system: actin cytoskeleton and peripheral ER network; test: Actin cytoskeleton and peripheral ER network in yeast; assay type: cell-based; settings: 100 μM, versus DMSO-treated cells, n=50
Description: These structures are routinely examined in yeast mitochondrial morphology mutants as a test for the specificity of the mitochondrial phenotype.

[2] = Structure Function Analysis of A1, A2, and A3, fraction of yeast cells
[3] = fraction of wild type yeast cells

COc1cc(-n2c(S)nc3ccccc3c2=O)c(Cl)cc1Cl [mfisi-1, 3-(2,4-Dichloro-5-methoxy-phenyl)-2-mercapto-3H-quinazolin-4-one]
effect on mitochondrial morphology in yeast cells (wild type yeast cells): caused the formation of mitochondrial net-like structures | IC50 (wild type yeast cells; Saccharomyces cerevisiae, read-out: IC50, formation of net-like mitochondria): 10 to 20 µM | Fragmented (wild type yeast cells; [2]): .05 | Nets (wild type yeast cells; [2]): .55 | Reticular (wild type yeast cells; [2]): .40 | Mitochondrial Morphology after Drug is Added: Fragmented (wild type yeast cells; [3]): .05 | Mitochondrial Morphology after Drug is Added: Nets (wild type yeast cells; [3]): .55 | Mitochondrial Morphology after Drug is Added: Reticular (wild type yeast cells; [3]): .40 | time after addition until net-like mitochondria form (wild type yeast cells; wild type cells, sub-μM concentrations): ≤ 1 min | % net-like structures (wild type yeast cells; yeast, each at a concentration of 50 μM): 60% | IC50 (recombinant Dnm1): ~10 µM | mode of inhibition versus GTP (recombinant Dnm1; mfisi-1 at its IC50, GTP 10 μM-2 mM): NOT a pure competitive inhibitor | % collapsed nets (mammalian COS cells; COS cells, n=100): 19% | % fragmented (mammalian COS cells; COS cells, n=100): 0% | % loose nets (mammalian COS cells; COS cells, n=100): 45% | % reticular (mammalian COS cells; COS cells, n=100): 36% | EC50 (mammalian COS cells; COS, mammalian cells, similar to yeast, read-out: EC50, effects on mitochondrial morphology): 10 µM | mitochondrial fission events / rate of fission (yeast cells): no detectable fission events were observed | mitochondrial fusion events / rate of fusion (yeast cells): fusion events occurred | changes in actin cytoskeleton or peripheral ER network [1]: did not result in significant changes
